The supplement of paper PMC11061612

Assays:
Experiment in all cases: Bliss excess, mean over the matrix (fraction); higher = more synergy
[1] = tested on: HO-1-N-1 (Oral Cavity Carcinoma)
In short: (§1)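 Cell lines in DMEM/F12 or RPMI with 10% FBS were plated in 1536-well plates, held 24 hours at 37°C, 5% CO2, then given two-drug dose matrices for 72 hours (DMSO typically 0.2%). Viability was read by CellTiter-Glo 2.0 luminescence and scaled as inhibition from 0 (vehicle wells) to 1 (blank wells). Combination Emax is the second-highest inhibition in the matrix; Bliss excess is observed combination effect minus expected EA + EB − EA·EB, EA and EB being single-agent effects.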

[2] = tested on: HCC-78 (Lung Adenocarcinoma)
In short: as §1

HOS (Osteosarcoma) = tested on: HOS (Osteosarcoma)
In short: as §1

[3] = tested on: Ramos-2G6-4C10 (Burkitt's Lymphoma)
In short: as §1

[4] = tested on: LB831-BLC (Bladder Carcinoma)
In short: as §1

[5] = tested on: KURAMOCHI (Ovarian Carcinoma)
In short: as §1

[6] = tested on: NCI-H2085 (Non-Small Cell Lung Carcinoma)
In short: as §1

T98G (Glioblastoma) = tested on: T98G (Glioblastoma)
In short: as §1

Compound	Bliss excess [1]	Bliss excess [2]	Bliss excess (HOS (Osteosarcoma))	Bliss excess [3]	Bliss excess [4]	Bliss excess [5]	Bliss excess [6]	Bliss excess (T98G (Glioblastoma))
C[C@@H]1COCCN1c1cc(C2([S@](C)(=N)=O)CC2)nc(-c2ccnc3[nH]ccc23)n1 [AZD6738] + C1CC(C1)(C(=O)[O-])C(=O)[O-].N.N.[Pt+2] [Carboplatin] (first compound max 10 µM, 7x7, partner max 10 µM)	0.0156	-0.0401	-0.0209	-0.0421	-0.051	0.0222	-0.067	-0.0401
Cc1cc2ncnn2cc1Nc1ncc2c(n1)n(C1CCOCC1)c(=O)n2C [AZD7648] + COc1cc([C@@H]2c3cc4c(cc3[C@@H](O[C@@H]3O[C@@H]5CO[C@@H](C)O[C@H]5[C@H](O)[C@H]3O)[C@H]3COC(=O)[C@H]23)OCO4)cc(OC)c1O [Etoposide] (first compound max 10 µM, 7x7, partner max 10 µM)	0.23	0.0695	0.0772	0.0563	0.103	0.0716	0.0734	0.12
CN(CCO)CC[C@H](CSc1ccccc1)Nc1ccc(S(=O)(=O)NC(=O)c2ccc(N3CCC([C@@H](O)c4ccccc4-c4ccc(Cl)cc4)CC3)cc2)cc1S(=O)(=O)C(F)(F)F [AZD4320] + Nc1ccn([C@@H]2O[C@H](CO)[C@@H](O)C2(F)F)c(=O)n1 [Gemcitabine] (first compound max 1 µM, 7x7, partner max 0.3 µM)	-0.0049	-0.0215	0.0045	-0.0368	-0.0192	0.0216	0.0228	-0.0265
N#Cc1cnc(Nc2cc(NC[C@H]3CNCCO3)c(C(F)(F)F)cn2)cn1 [SRA737] + O=c1[nH]cc(F)c(=O)[nH]1 [5-Fluorouracil] (first compound max 10 µM, 7x7, partner max 20 µM)	0.0623	0.0929	0.0248	-0.0068	0.0113	-0.0351	-0.0495	-0.0277
C[C@@H](Nc1cc(F)cc(F)c1)c1cc(C(=O)N(C)C)cc2c(=O)cc(N3CCOCC3)oc12 [AZD8186] + CC(=O)c1c(C)c2cnc(Nc3ccc(N4CCNCC4)cn3)nc2n(C2CCCC2)c1=O [Palbociclib] (first compound max 10 µM, 7x7, partner max 10 µM)	0.0805	0.0329	-0.0227	-0.0328	-0.0414	-0.0358	0.0565	0.0744
Cc1c2c(nn1C)CSCc1cc(n(C)n1)CSc1cc(c3ccccc3c1)OCCCc1c(C(=O)O)n(C)c3c-2c(Cl)ccc13 [AZD5991] + Nc1ccn([C@@H]2O[C@H](CO)[C@@H](O)C2(F)F)c(=O)n1 [Gemcitabine] (first compound max 1 µM, 7x7, partner max 0.3 µM)	-0.0071	-0.0102	0.0054	0.0162	-0.0443	0.0117	-0.021	0.0127
N#Cc1cnc(Nc2cc(NC[C@H]3CNCCO3)c(C(F)(F)F)cn2)cn1 [SRA737] + CCc1c2c(nc3ccc(O)cc13)-c1cc3c(c(=O)n1C2)COC(=O)[C@]3(O)CC [SN-38] (first compound max 10 µM, 7x7, partner max 0.3 µM)	-0.0022	-0.0447	0.0136	0.135	0.0497	-0.0093	-0.0053	0.0065
CS(=O)(=O)CCNCc1ccc(-c2ccc3ncnc(Nc4ccc(OCc5cccc(F)c5)c(Cl)c4)c3c2)o1 [Lapatinib] + Cn1cnc2c(F)c(Nc3ccc(Br)cc3Cl)c(C(=O)NOCCO)cc21 [Selumetinib] (first compound max 10 µM, 7x7, partner max 10 µM)	0.145	-0.0196	-0.0848	0.0139	-0.0344	-0.0116	-0.0366	0.0075
C[C@@H](Oc1cc(-c2cnn(C3CCNCC3)c2)cnc1N)c1c(Cl)ccc(F)c1Cl [Crizotinib] + Cn1cnc2c(F)c(Nc3ccc(Br)cc3Cl)c(C(=O)NOCCO)cc21 [Selumetinib] (first compound max 10 µM, 7x7, partner max 10 µM)	-0.0087	0.0444	-0.0566	-0.0875	-0.049	-0.0483	-0.0399	-0.0578
CN(CCO)CC[C@H](CSc1ccccc1)Nc1ccc(S(=O)(=O)NC(=O)c2ccc(N3CCC([C@@H](O)c4ccccc4-c4ccc(Cl)cc4)CC3)cc2)cc1S(=O)(=O)C(F)(F)F [AZD4320] + CC(=O)O[C@H]1C(=O)[C@@]2(C)[C@H]([C@H](OC(=O)c3ccccc3)[C@]3(O)C[C@H](OC(=O)[C@H](O)[C@@H](NC(=O)c4ccccc4)c4ccccc4)C(C)=C1C3(C)C)[C@]1(OC(C)=O)CO[C@@H]1C[C@@H]2O [Paclitaxel] (first compound max 1 µM, 7x7, partner max 3 µM)	0.0178	0.168	0.184	-0.151	0.104	0.0929	0.207	0.0613
Cc1nc(-c2cn3c(n2)-c2ccc(-c4cnn(C(C)(C)C(N)=O)c4)cc2OCC3)n(C(C)C)n1 [Taselisib] + O=C(Nc1ccc2[nH]nc(-c3ccncc3)c2c1)[C@@H]1CCN(CC(=O)N2CCN(c3ccc(-c4ncccn4)cc3)CC2)C1 [SCH772984] (first compound max 10 µM, 7x7, partner max 5 µM)	0.0562	0.0886	0.0044	0.008	-0.0305	0.0721	-0.0174	0.0838
N#Cc1cnc(Nc2cc(NC[C@H]3CNCCO3)c(C(F)(F)F)cn2)cn1 [SRA737] + C=CCn1c(=O)c2cnc(Nc3ccc(N4CCN(C)CC4)cc3)nc2n1-c1cccc(C(C)(C)O)n1 [AZD1775] (first compound max 10 µM, partner max 1 µM)	0.0976	0.0611	0.06	0.119	-0.0446	-0.0194	–	0.0169
O=C(c1cc(Cc2n[nH]c(=O)c3ccccc23)ccc1F)N1CCN(C(=O)C2CC2)CC1 [Olaparib] + COc1nnc2ccc(N3CCC(c4ccc(OCCN5CCN(C)C(=O)[C@H]5C)cc4)CC3)nn12 [AZD5153] (first compound max 10 µM, 7x7, partner max 1 µM)	-0.02	-0.0169	-0.057	-0.0473	-0.0889	-0.0231	-0.0423	-0.0501
O=C(c1cc(Cc2n[nH]c(=O)c3ccccc23)ccc1F)N1CCN(C(=O)C2CC2)CC1 [Olaparib] + Cc1c2c(nn1C)CSCc1cc(n(C)n1)CSc1cc(c3ccccc3c1)OCCCc1c(C(=O)O)n(C)c3c-2c(Cl)ccc13 [AZD5991] (first compound max 10 µM, 7x7, partner max 1 µM)	0.0456	-0.0244	-0.0292	0.0249	-0.0371	-0.0546	-0.062	-0.0277
O=C(c1cc(Cc2n[nH]c(=O)c3ccccc23)ccc1F)N1CCN(C(=O)C2CC2)CC1 [Olaparib] + CC1(C)CCC(CN2CCN(c3ccc(C(=O)NS(=O)(=O)c4ccc(NCC5CCOCC5)c([N+](=O)[O-])c4)c(Oc4cnc5[nH]ccc5c4)c3)CC2)=C(c2ccc(Cl)cc2)C1 [Venetoclax] (first compound max 10 µM, 7x7, partner max 1 µM)	0.048	-0.0181	-0.0626	-0.0167	-0.0271	-0.0482	-0.0608	-0.0269
C=CCn1c(=O)c2cnc(Nc3ccc(N4CCN(C)CC4)cc3)nc2n1-c1cccc(C(C)(C)O)n1 [AZD1775] + Nc1ccn([C@@H]2O[C@H](CO)[C@@H](O)C2(F)F)c(=O)n1 [Gemcitabine] (first compound max 1 µM, partner max 0.3 µM)	0.0188	0.0795	0.0754	0.186	0.0909	0.0284	0.032	0.0257
Cc1c2c(nn1C)CSCc1cc(n(C)n1)CSc1cc(c3ccccc3c1)OCCCc1c(C(=O)O)n(C)c3c-2c(Cl)ccc13 [AZD5991] + CS(=O)(=O)CCNCc1ccc(-c2ccc3ncnc(Nc4ccc(OCc5cccc(F)c5)c(Cl)c4)c3c2)o1 [Lapatinib] (first compound max 1 µM, 7x7, partner max 10 µM)	0.0972	-0.0167	-0.0365	0.0153	-0.0215	-0.012	0.0494	-0.0233
